Common to all, as to assay type: biochemical
The target of assay [1] is T1, PI3K β (p110β/p85α) (Homo sapiens, UniProt P42338).
T1 construct: purchased Upstate / Millipore Corporation
Briefly: PI 3-Kinase (human) HTRF assay, PI3K β. To be noted: read-out: PI3K β IC50. (In general: In TR-FRET formats the signal depends on donor and acceptor labels being close together.)

Assay [2] deals with T2, PI3K α (p110α/p85α) (Homo sapiens, UniProt P42336).
T2 construct: purchased Upstate / Millipore Corporation
T2 sequence (P42336 whole entry): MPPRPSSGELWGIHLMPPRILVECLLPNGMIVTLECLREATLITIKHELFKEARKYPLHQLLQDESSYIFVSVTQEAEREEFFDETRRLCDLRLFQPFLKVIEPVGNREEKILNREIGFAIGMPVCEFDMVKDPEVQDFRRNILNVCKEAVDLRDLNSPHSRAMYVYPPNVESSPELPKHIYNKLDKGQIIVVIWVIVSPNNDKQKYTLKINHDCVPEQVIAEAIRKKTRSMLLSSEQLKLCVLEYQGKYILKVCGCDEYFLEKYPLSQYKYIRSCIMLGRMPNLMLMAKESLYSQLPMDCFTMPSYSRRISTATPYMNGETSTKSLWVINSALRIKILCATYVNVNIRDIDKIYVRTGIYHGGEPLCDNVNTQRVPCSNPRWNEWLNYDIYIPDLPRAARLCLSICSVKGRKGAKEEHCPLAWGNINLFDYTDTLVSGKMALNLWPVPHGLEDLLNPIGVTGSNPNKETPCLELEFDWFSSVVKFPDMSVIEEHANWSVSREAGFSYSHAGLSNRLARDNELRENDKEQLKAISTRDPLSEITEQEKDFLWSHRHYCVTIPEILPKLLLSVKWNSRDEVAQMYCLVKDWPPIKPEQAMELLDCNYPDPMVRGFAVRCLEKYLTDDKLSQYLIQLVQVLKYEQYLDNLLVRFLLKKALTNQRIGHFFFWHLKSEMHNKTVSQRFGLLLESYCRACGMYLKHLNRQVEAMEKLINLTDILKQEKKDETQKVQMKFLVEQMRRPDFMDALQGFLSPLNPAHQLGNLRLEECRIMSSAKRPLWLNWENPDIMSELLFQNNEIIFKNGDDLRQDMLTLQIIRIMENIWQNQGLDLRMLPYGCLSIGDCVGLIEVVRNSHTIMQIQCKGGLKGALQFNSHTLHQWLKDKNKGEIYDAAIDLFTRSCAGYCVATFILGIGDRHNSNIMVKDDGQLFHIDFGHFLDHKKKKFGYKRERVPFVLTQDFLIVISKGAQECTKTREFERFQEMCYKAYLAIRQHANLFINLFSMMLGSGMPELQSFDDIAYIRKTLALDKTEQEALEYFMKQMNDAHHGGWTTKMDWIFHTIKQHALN
T2 sequence (P27986 whole entry partner): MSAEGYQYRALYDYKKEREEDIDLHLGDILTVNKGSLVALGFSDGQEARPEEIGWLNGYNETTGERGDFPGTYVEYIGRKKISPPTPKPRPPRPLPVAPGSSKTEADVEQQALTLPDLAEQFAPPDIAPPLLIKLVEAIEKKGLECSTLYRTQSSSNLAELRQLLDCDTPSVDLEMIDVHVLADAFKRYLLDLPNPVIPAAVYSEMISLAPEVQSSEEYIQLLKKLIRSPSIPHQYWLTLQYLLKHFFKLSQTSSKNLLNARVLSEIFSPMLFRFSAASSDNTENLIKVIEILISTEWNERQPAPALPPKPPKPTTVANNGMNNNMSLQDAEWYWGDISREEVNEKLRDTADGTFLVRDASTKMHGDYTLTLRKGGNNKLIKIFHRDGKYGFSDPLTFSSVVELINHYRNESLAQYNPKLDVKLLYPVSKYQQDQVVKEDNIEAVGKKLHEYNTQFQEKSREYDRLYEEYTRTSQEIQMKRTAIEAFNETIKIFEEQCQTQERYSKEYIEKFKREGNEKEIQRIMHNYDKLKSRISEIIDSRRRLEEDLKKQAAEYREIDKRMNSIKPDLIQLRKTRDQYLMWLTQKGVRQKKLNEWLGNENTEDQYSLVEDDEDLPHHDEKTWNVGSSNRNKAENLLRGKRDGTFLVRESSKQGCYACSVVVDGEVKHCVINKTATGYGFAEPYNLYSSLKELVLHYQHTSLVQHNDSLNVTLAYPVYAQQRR
Kind of assay: PI 3-Kinase (human) HTRF assay, PI3K α. The note with it: read-out: PI3K α IC50.
Method: Briefly, the assay is a time resolved FRET assay that indirectly measures PIP3 product formed by the activity of a PI3-K. The kinase reaction is performed in a microtiter plate (e.g., a 384 well microtiter plate). The total reaction volume is approximately 20 ul per well. In the first step, each well receives 2 ul of test compound in 20% dimethylsulphoxide resulting in a 2% DMSO final concentration. […] The plate is sealed and incubated for 15 minutes at room temperature. […] The plate is sealed and incubated for 1 hour at room temperature. The reaction is stopped by adding 5 ul of Stop Solution per well and then 5 ul of Detection Mix is added per well. The plate is sealed, incubated for 1 hour at room temperature, and then read on an appropriate plate reader. Data is analyzed and IC50s are generated using GraphPad Prism 5.

The target of assay [3] is T3, PI3K γ (p110γ) (Homo sapiens, UniProt P48736).
T3 construct: purchased Upstate / Millipore Corporation
T3 sequence (P48736 whole entry): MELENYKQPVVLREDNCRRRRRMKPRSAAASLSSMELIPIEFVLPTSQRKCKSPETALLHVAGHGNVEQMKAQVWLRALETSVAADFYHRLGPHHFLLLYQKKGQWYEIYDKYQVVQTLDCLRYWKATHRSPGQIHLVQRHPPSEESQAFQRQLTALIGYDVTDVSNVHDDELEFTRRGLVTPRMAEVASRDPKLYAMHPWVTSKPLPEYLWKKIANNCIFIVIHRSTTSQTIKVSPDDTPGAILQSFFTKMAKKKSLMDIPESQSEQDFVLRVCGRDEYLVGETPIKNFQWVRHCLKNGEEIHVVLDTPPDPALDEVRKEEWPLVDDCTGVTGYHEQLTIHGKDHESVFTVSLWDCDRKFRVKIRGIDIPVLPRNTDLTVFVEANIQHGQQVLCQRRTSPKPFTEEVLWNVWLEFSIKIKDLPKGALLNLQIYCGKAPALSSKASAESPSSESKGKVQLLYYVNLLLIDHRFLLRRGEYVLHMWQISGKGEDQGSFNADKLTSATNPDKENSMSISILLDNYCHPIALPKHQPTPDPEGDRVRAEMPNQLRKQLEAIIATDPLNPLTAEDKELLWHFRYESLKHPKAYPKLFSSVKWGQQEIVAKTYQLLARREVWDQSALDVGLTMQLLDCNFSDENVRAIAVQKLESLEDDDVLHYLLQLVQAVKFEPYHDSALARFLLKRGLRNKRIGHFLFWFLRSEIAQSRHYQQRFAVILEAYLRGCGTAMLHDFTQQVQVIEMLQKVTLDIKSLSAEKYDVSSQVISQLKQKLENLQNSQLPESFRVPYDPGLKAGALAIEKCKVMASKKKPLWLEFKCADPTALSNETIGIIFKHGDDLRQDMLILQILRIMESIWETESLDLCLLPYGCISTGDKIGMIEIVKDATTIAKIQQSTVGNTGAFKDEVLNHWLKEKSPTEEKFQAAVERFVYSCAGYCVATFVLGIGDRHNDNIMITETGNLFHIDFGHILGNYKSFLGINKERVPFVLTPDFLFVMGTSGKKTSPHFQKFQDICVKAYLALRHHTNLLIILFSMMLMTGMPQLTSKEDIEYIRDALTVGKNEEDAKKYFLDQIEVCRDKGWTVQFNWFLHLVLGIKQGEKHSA
Briefly: PI 3-Kinase (human) HTRF assay, PI3K γ. The note with it: read-out: PI3K γ IC50.

Assay [4] has as its target T4, PI3K δ (Homo sapiens, UniProt O00329).
T4 construct: purchased Upstate / Millipore Corporation
Kind of assay: PI 3-Kinase (human) HTRF assay, PI3K δ. To be noted: read-out: PI3K δ IC50.

The structures appear in SMILES notation. Where two headings read alike, the source gives them in different places.

T4 sequence (O00329 whole entry): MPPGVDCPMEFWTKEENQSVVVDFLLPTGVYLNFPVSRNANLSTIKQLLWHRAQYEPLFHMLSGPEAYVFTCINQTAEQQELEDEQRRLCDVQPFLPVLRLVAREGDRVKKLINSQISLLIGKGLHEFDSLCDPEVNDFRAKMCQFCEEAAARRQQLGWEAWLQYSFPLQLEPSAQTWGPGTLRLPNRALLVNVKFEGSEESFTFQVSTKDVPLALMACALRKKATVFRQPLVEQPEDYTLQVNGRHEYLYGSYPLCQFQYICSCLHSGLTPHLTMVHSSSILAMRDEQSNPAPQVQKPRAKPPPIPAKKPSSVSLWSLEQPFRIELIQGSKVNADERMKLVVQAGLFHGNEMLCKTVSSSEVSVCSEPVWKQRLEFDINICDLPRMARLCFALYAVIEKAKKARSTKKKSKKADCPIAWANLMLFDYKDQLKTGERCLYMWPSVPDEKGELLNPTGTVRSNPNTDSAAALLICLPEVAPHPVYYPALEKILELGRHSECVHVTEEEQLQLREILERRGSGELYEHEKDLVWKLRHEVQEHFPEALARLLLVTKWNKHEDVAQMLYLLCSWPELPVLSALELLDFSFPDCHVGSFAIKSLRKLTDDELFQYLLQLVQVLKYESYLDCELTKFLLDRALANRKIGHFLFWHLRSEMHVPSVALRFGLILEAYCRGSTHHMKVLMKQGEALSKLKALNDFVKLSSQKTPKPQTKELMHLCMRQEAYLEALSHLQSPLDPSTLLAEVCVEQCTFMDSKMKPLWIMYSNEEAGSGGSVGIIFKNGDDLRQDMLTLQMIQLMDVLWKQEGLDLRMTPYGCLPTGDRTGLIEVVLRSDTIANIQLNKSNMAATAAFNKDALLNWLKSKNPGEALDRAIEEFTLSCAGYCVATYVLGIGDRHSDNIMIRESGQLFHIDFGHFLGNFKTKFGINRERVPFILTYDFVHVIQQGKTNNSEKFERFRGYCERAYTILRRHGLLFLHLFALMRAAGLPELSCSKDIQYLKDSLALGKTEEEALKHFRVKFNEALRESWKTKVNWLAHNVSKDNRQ
T4 sequence (P27986 whole entry partner): as the sequence (P27986 whole entry partner) above
T1 sequence (P42338 whole entry): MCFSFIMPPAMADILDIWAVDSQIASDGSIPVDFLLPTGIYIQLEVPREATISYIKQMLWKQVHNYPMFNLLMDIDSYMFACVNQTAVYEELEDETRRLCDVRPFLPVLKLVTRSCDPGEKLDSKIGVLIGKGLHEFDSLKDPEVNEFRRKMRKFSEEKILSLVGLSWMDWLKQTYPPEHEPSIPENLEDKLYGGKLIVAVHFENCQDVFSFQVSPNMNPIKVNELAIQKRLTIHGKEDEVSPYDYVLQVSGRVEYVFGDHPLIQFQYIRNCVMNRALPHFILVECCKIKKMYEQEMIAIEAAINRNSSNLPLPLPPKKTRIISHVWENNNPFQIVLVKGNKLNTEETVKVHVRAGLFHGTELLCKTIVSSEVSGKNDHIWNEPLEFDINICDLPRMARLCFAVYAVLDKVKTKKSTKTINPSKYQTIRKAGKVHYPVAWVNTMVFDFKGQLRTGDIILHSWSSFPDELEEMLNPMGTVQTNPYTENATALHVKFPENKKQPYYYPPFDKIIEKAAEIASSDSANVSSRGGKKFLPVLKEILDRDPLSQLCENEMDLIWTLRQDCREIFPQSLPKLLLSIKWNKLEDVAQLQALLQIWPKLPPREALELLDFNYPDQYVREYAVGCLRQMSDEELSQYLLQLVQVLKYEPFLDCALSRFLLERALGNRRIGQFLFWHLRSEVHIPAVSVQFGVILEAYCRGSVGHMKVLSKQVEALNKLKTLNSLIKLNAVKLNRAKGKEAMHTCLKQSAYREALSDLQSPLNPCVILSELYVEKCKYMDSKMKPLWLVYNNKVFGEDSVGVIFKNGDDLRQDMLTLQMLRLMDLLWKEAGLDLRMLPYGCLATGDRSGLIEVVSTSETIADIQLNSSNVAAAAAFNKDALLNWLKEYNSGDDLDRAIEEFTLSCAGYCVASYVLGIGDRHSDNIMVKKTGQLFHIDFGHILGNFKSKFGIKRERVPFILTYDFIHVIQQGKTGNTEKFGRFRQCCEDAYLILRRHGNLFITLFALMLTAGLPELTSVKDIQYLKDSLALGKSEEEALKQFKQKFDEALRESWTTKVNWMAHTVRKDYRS
T1 sequence (P27986 whole entry partner): as the sequence (P27986 whole entry partner) above

A word on the IC50: it is the concentration that inhibits the measured activity by half. As for `CC(=O)N1CCC(Nc2cnc3ccc(-c4ccc5oc(N)nc5c4)cc3n2)CC1` [Compound 82], the IC50 in assay [1] was less than 10 µM; in assay [2], less than 0.1 µM; in assay [3] it was less than 0.1 µM; in assay [4] it was less than 0.1 µM.
As to `CN1CCC(Nc2nc3cc(-c4ccc5ncc(C(=O)N6CCOCC6)n5c4)ccc3o2)CC1` [Compound 408], the half-inhibitory concentration (IC50) in assay [1], in assay [2], in assay [3] and in assay [4] was more than 10 µM in each case.
With `CCN(CC)CCNC(=O)c1cnc2ccc(-c3ccc4oc(N)nc4c3)cn12` [Compound 295], the IC50 in assay [1], in assay [2], in assay [3] and in assay [4] was less than 1 µM in each case.
Consider `C[C@H]1CN(c2cnc3ccc(-c4cccc5nc(N)oc45)cc3n2)CCN1` [Compound 310], for which the IC50 in assay [1], in assay [2], in assay [3] and in assay [4] was more than 10 µM each time.
Take `Nc1nc2cc(-c3ccc4ncc(N5CC(N6CCC(O)CC6)C5)nc4c3)ccc2o1` [Compound 341]: the IC50 in assay [1] is more than 10 µM; in assay [2], less than 1 µM; in assay [3], less than 10 µM; in assay [4], less than 10 µM.
With `Cc1cn(C2CCN(c3cnc4ccc(-c5ccc6oc(N)nc6c5)cc4n3)CC2)cn1` [Compound 338], the IC50 was less than 10 µM in assay [1], less than 0.1 µM in assay [2], less than 10 µM in assay [3] and less than 10 µM in assay [4].
In the case of `Nc1nc2cc(-c3ccc4ncc(N5CCOCC5)cc4n3)ccc2o1` [Compound 573], the IC50 is less than 1 µM in assay [1] (Table 4 (PI3K α inhibitors)), less than 0.1 µM in assay [2] (Table 4 (PI3K α inhibitors)), less than 0.1 µM in assay [3] (Table 4 (PI3K α inhibitors)) and more than 10 µM in assay [4] (Table 4 (PI3K α inhibitors)).
As for `Nc1nc2cc(-c3ccc4ncc(C(=O)N5CCC(N6CC(F)(F)C6)C5)n4c3)ccc2o1` (stereo not drawn) [Compound 498], the IC50 in assay [1] was more than 10 µM; in assay [2], less than 1 µM; in assay [3], less than 10 µM; in assay [4], more than 10 µM.
Take `O=C(c1cnc2ccc(-c3ccc4c(Nc5ccccc5)nsc4c3)cn12)N1CCOCC1` [Compound 505]: the IC50 in assay [1], in assay [2], in assay [3] and in assay [4] was more than 10 µM each time.
On to `COC1CN(C(=O)c2cnc3ccc(-c4ccc5oc(N)nc5c4)cn23)C1` [Compound 467], for which the IC50 in assay [1] was less than 10 µM; in assay [2] it was less than 0.1 µM; in assay [3], less than 0.1 µM; in assay [4], less than 10 µM.
For the compound `CN1CCN(c2nnc3ccc(-c4ccc5nc(N)oc5c4)cn23)CC1` [Compound 542], the IC50 in assay [1], in assay [2], in assay [3] and in assay [4] was more than 10 µM in each case.
With `Cc1cc2oc(N)nc2cc1-c1ccc2ncc(N3CCN[C@@H](C)C3)nc2c1` [Compound 351], the IC50 was less than 1 µM in assay [1], less than 10 µM in assay [2], more than 10 µM in assay [3] and more than 10 µM in assay [4].
In the case of `O=C(c1cnc2ccc(-c3ccc4oc(Nc5ccccc5)nc4c3)cn12)N1CCOCC1` [Compound 407], the IC50 in assay [1] is less than 10 µM; in assay [2], more than 10 µM; in assay [3], more than 10 µM; in assay [4] it was more than 10 µM.
Regarding `CN1CCC(N(C)C(=O)c2cnc3ccc(-c4ccc5oc(N)nc5c4)cn23)CC1` [Compound 165], the IC50 was less than 10 µM in assay [1], less than 1 µM in assay [2], more than 10 µM in assay [3] and less than 10 µM in assay [4].
Turning to `Nc1nc2cc(-c3ccc4ncn(C5CCC5)c(=O)c4c3)ccc2o1` [Compound 205], the IC50 in assay [1] is more than 10 µM; in assay [2] it was less than 0.1 µM; in assay [3] it was more than 10 µM; in assay [4], more than 10 µM.
Take `CC(=O)Nc1nc2cc(-c3ccc4oc(N)nc4c3)ccc2s1` [Compound 250]: the IC50 in assay [1] was more than 10 µM; in assay [2] it was more than 10 µM; in assay [3], less than 0.1 µM; in assay [4] it was more than 10 µM.
As for `Nc1nc2cc(-c3ccc4ncc(C(=O)N5CCC6(C5)OCCO6)n4c3)ccc2o1` [Compound 499], the IC50 is more than 10 µM in assay [1], less than 1 µM in assay [2], less than 10 µM in assay [3] and more than 10 µM in assay [4].
As to `Cc1cc2ncc(C(=O)N3CCOCC3)n2cc1-c1ccc2oc(N)nc2c1` [Compound 507], the IC50 in assay [1], in assay [2], in assay [3] and in assay [4] was more than 10 µM each time.
In the case of `CS(=O)(=O)CCN1CCC(Nc2cnc3ccc(-c4ccc5oc(N)nc5c4)cc3n2)CC1` [Compound 181], the IC50 in assay [1] was less than 10 µM; in assay [2] it was less than 0.1 µM; in assay [3], less than 0.1 µM; in assay [4], less than 1 µM.
As to `CC(C)N1CCN(C(=O)c2cnc3ccc(-c4ccc5oc(N)nc5c4)cn23)CC1` [Compound 160], the IC50 was less than 10 µM in assay [1], less than 0.1 µM in assay [2], more than 10 µM in assay [3] and more than 10 µM in assay [4].
`Nc1nc2cc(-c3ccc4ncc(C(=O)N5CC[C@H](N6CCOCC6)C5)n4c3)ccc2o1` [Compound 465]: the IC50 was more than 10 µM in assay [1], less than 0.1 µM in assay [2], less than 1 µM in assay [3] and more than 10 µM in assay [4].
For the compound `C[C@H]1CN(c2cnc3ccc(-c4cccc5c(N)noc45)cc3n2)CCN1` [Compound 363], the IC50 in assay [1], in assay [2], in assay [3] and in assay [4] was more than 10 µM each time.
In the case of `CN1CCN(CCc2nnc3ccc(-c4ccc5nc(N)oc5c4)cn23)CC1` [Compound 545], the IC50 in assay [1], in assay [2], in assay [3] and in assay [4] was more than 10 µM throughout.
For `Cc1nc(NC(=O)N2CCC[C@H]2C(N)=O)sc1-c1ccc2oc(N)nc2c1` [Compound 311], the IC50 was more than 10 µM in assay [1], less than 1 µM in assay [2], more than 10 µM in assay [3] and more than 10 µM in assay [4].
Consider `CN1CCN(CCNc2cnc3ccc(-c4ccc5oc(N)nc5c4)cc3n2)CC1` [Compound 275], for which the IC50 in assay [1] is less than 1 µM; in assay [2], less than 0.1 µM; in assay [3], less than 1 µM; in assay [4] it was less than 1 µM.
Regarding `C[C@@H](N)C(=O)N1CCN(c2cnc3ccc(-c4ccc5oc(N)nc5c4)cc3n2)CC1` [Compound 208], the IC50 in assay [1] was less than 1 µM; in assay [2], less than 0.1 µM; in assay [3] it was less than 10 µM; in assay [4], less than 1 µM.
Consider `Nc1nc2cc(-c3ccc4nc(N5CCOCC5)cnc4n3)ccc2o1` [Compound 558], for which the IC50 in assay [1] (Table 4 (PI3K α inhibitors)), in assay [2] (Table 4 (PI3K α inhibitors)), in assay [3] (Table 4 (PI3K α inhibitors)) and in assay [4] (Table 4 (PI3K α inhibitors)) was more than 10 µM throughout.
For the compound `Nc1noc2ccc(-c3ccc4nccc(-c5ccncc5)c4c3)cc12` [Compound 18], the IC50 was more than 10 µM in assay [1], less than 10 µM in assay [2], less than 10 µM in assay [3] and more than 10 µM in assay [4].
Turning to `Nc1nc2cc(-c3ccc4ncc(C(=O)NCCO)n4c3)ccc2o1` [Compound 189], the IC50 in assay [1] is less than 1 µM; in assay [2], less than 0.1 µM; in assay [3], less than 1 µM; in assay [4] it was less than 1 µM.
`Nc1nc2cc(-c3ccc4ncc(-c5cn[nH]c5)n4n3)ccc2o1` [Compound 59]: the IC50 in assay [1] was less than 0.1 µM; in assay [2], less than 0.1 µM; in assay [3], less than 0.1 µM; in assay [4], less than 1 µM.
For the compound `Nc1nc2cc(-c3ccc4ncc(N5CCC(O)C5)nc4c3)ccc2o1` (stereo not drawn) [Compound 209], the IC50 is less than 1 µM in assay [1], less than 0.1 µM in assay [2], less than 0.1 µM in assay [3] and less than 10 µM in assay [4].
On to `Nc1nc2cc(-c3cnc4ncc(-c5ccncc5)n4c3)ccc2o1` [Compound 61], for which the IC50 in assay [1], in assay [2], in assay [3] and in assay [4] was more than 10 µM in each case.
In the case of `Nc1nc2cc(-c3ccc4c(N)n[nH]c4c3)ccc2o1` [Compound 428], the IC50 in assay [1] is less than 10 µM; in assay [2] it was less than 10 µM; in assay [3] it was less than 1 µM; in assay [4], more than 10 µM.
With `O=C(c1cnc2ccc(-c3cccc(NS(=O)(=O)c4ccc(F)cc4F)c3)cn12)N1CCOCC1` [Compound 454], the IC50 in assay [1] is more than 10 µM; in assay [2], less than 10 µM; in assay [3] it was less than 10 µM; in assay [4] it was less than 10 µM.
In the case of `CNC(=O)N1CCN(c2cnc3ccc(-c4ccc5oc(N)nc5c4)cc3n2)CC1` [Compound 154], the IC50 in assay [1] was less than 1 µM; in assay [2] it was less than 0.1 µM; in assay [3] it was less than 0.1 µM; in assay [4], less than 10 µM.
In the case of `O=C(c1cnc2ccc(-c3cnc(Cl)c(NS(=O)(=O)c4cccc(F)c4)c3)cn12)N1CCOCC1` [Compound 458], the IC50 in assay [1], in assay [2], in assay [3] and in assay [4] was less than 0.1 µM each time.
On to `CN(C)C1CCN(c2cnc3ccc(-c4ccc5oc(N)nc5c4)cc3n2)CC1` [Compound 172], for which the IC50 in assay [1] was less than 0.1 µM; in assay [2], less than 0.1 µM; in assay [3], less than 1 µM; in assay [4], less than 0.1 µM.
In the case of `C[C@H](N)C(=O)N1CCN(c2cnc3ccc(-c4ccc5oc(N)nc5c4)nc3n2)CC1` [Compound 581], the IC50 in assay [1] (Table 4 (PI3K α inhibitors)), in assay [2] (Table 4 (PI3K α inhibitors)), in assay [3] (Table 4 (PI3K α inhibitors)) and in assay [4] (Table 4 (PI3K α inhibitors)) was less than 0.1 µM throughout.
On to `Nc1nc2cc(-c3ccc4ncc(N5CCOCC5)nc4c3)ccc2s1` [Compound 116], for which the IC50 in assay [1] was less than 1 µM; in assay [2], less than 0.1 µM; in assay [3], less than 1 µM; in assay [4] it was more than 10 µM.

(Values after patent publication US20150087627A1, “COMBINATION OF KINASE INHIBITORS AND USES THEREOF” (Intellikine LLC, priority 2011, published 2015).)
